Assay results published in patent US9023789B2, “Amylin analogs and pharmaceutical compositions thereof” (Novo Nordisk A/S, priority 2012, dated 2015).
Numbered stars: 1 amine (or outer) side, 2 acyl side, 3 side chain; on linkers, the order of the positions; unused ones are H or OH. Bridge positions count the residues as written; N and C are the ends. Side chains are listed from the residue outwards. Peptide text beside a SMILES is read from it. * marks the point of attachment. C20 diacid = O=C(O)CCCCCCCCCCCCCCCCCCC(=O)*; γGlu = O=C(O)[C@H](CCC(=O)[*:2])N[*:1]

Tests used:
[1] = biological target: T1, human amylin 3(a) receptor (human calcitonin receptor + RAMP-3) in BHK570 cells (Homo sapiens, UniProt O60896+P30988); assay: ASSAY (II)a functional assay, human amylin receptor (CRE luciferase); assay type: cell-based
T1 construct: expressed in transfected cells
How it was run: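 Functional agonism was measured by CRE-luciferase reporter luminescence in BHK cells bearing calcitonin receptor, or calcitonin receptor plus RAMP-3 as the amylin 3(a) receptor. Stimulation lasted 3 hours at 37° C.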

[2] = biological target: T2, human amylin receptor (membranes from Amylin 3(a)/CRE-luc cells) (Homo sapiens, UniProt O60896+P30988); assay: ASSAY (V) binding to the human amylin receptor (SPA, 125I-rat amylin);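 also: competition binding of cell membranes (35 ng/µL) mixed with SPA beads in 384-well plates at 40 µL total volume, read by scintillation counting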
T2 construct: expressed in transfected cells
T2 sequence (P30988 25-474): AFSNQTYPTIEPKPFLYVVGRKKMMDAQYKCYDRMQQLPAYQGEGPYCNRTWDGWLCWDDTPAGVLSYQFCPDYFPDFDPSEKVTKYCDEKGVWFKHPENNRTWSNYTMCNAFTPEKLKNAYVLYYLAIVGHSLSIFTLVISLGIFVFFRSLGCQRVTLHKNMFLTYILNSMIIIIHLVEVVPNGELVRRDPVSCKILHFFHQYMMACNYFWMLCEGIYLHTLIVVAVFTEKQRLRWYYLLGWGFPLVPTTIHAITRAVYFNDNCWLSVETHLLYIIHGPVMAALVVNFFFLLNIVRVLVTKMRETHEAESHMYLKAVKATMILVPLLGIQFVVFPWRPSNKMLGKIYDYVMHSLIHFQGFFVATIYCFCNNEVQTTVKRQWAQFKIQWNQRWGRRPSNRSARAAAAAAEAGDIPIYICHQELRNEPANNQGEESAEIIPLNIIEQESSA
T2 sequence (O60896 24-148 partner): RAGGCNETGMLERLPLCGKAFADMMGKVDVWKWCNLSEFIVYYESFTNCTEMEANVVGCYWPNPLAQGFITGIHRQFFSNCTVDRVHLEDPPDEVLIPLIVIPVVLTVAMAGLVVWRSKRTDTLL

[3] = biological target: T3, rat amylin receptor (rat calcitonin receptor + rat RAMP 3) (Rattus norvegicus, UniProt P32214+Q9JJ73); assay: ASSAY (VI) binding to the rat amylin receptor; conditions: for IC50: binding to rat amylin receptor, read-out: rAmylin-R bind IC50
T3 construct: expressed in transfected cells; host or cells: BHK tk'ts 13 (transient, FuGENE 6), membranes
T3 sequence (P32214 25-479 isoform P32214-2 limits assumed): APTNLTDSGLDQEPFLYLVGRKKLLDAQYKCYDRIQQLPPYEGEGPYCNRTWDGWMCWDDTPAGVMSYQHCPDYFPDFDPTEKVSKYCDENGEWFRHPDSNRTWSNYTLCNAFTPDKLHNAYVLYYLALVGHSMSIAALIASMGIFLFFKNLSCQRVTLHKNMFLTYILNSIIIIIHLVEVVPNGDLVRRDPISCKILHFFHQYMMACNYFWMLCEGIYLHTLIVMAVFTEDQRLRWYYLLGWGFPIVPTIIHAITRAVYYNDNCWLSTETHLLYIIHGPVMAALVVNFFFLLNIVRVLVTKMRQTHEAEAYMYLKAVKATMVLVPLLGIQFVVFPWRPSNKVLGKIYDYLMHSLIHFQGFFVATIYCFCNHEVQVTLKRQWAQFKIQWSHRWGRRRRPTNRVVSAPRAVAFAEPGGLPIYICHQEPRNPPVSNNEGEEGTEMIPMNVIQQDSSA
T3 sequence (Q9JJ73 23-147 partner): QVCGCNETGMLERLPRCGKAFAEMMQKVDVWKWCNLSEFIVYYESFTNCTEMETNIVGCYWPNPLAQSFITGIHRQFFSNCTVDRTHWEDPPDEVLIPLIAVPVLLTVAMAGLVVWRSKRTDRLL
How it was run: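 The cell-membrane assay assessed binding at the rat amylin receptor. BHK tk′ts 13 cells were transfected transiently with rat calcitonin receptor, with FuGENE® 6 (Roche) as the transfection reagent, used per the manufacturer's recommendations. Approximately 48 hours after transfection the cells were harvested, and membranes were prepared for measuring binding.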

[4] = biological target: T4, rat calcitonin receptor (Rattus norvegicus, UniProt P32214); assay: ASSAY (VIII) binding to the rat calcitonin receptor; conditions: Table 7, read-out: rCTR bind IC50
T4 construct: expressed in transfected cells; host or cells: BHK tk'ts 13 (transient, FuGENE 6), membranes
T4 sequence (P32214 25-479 isoform P32214-2 limits assumed): T3 sequence (P32214 25-479 isoform P32214-2 limits assumed)
How it was run: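 Cell membranes for binding came from BHK tk′ts 13 cells harvested approximately 48 hours after transient transfection with the rat receptor.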

[5] = hCTR funct. EC50 divided by hAmylin-R funct. EC50
[6] = hCTR funct. EC50 over hAmylin-R funct. EC50
[7] = human functional selectivity: hCTR funct. EC50 / hAmylin-R funct. EC50
[8] = Table 5, selectivity, hCTR bind IC50 / hAmylin-R bind IC50
[9] = Table 5a, selectivity, hCTR bind IC50 / hAmylin-R bind IC50
[10] = Table 5b, selectivity, hCTR bind IC50 / hAmylin-R bind IC50
[11] = Table 5c, selectivity, hCTR bind IC50 / hAmylin-R bind IC50
[12] = Table 7, human binding selectivity, included for comparison
[13] = Table 7a (preferred compounds), human binding selectivity, included for comparison
[14] = ratio of human calcitonin receptor binding IC50 to human amylin receptor binding IC50
[15] = Table 7, rat binding selectivity, rCTR IC50 / rAmylin-R IC50
[16] = Table 7a (preferred compounds), rat binding selectivity, rCTR IC50 / rAmylin-R IC50
[17] = ratio of rCTR bind IC50 to rAmylin-R bind IC50

Compound | Ratio hCT/hAmylin funct. ([1]; hCTR funct. EC50 / hAmylin-R funct. EC50) | Ratio hCT/hAmylin funct. [1, 5] | Ratio hCT/hAmylin funct. [1, 6] | Ratio hCT/hAmylin funct. [1, 7] | Ratio hCT/hAmylin binding [2, 8] | Ratio hCT/hAmylin binding [2, 9] | Ratio hCT/hAmylin binding [2, 10] | Ratio hCT/hAmylin binding [2, 11] | Ratio hCT/hAmylin binding [2, 12] | Ratio hCT/hAmylin binding [2, 13] | Ratio hCT/hAmylin binding [2, 14] | IC50 ([3]; Table 7) [nM] | Ratio rCT/rAmylin binding [3, 15] | Ratio rCT/rAmylin binding [3, 16] | Ratio rCT/rAmylin binding [3, 17] | IC50 [4] [nM]
CC[C@H](C)[C@H](NC(=O)[C@H](C)NC(=O)CNC(=O)[C@H](Cc1ccccc1)NC(=O)[C@H](CC(N)=O)NC(=O)[C@@H]1CCCN1C(=O)[C@H](CO)NC(=O)[C@H](CO)NC(=O)[C@H](Cc1c[nH]cn1)NC(=O)[C@H](CCCNC(=N)N)NC(=O)[C@H](CC(C)C)NC(=O)[C@H](Cc1ccccc1)NC(=O)[C@H](Cc1c[nH]cn1)NC(=O)[C@H](C)NC(=O)[C@H](CC(C)C)NC(=O)[C@H](CCCNC(=N)N)NC(=O)[C@H](CCC(N)=O)NC(=O)[C@@H](NC(=O)[C@H](C)NC(=O)[C@@H]1CSSC[C@H](NC(=O)[C@H](CCCNC(=N)N)NC(=O)CNC(=O)CC[C@H](NC(=O)CCCCCCCCCCCCCCCCCCC(=O)O)C(=O)O)C(=O)N[C@@H](CC(N)=O)C(=O)N[C@@H]([C@@H](C)O)C(=O)N[C@@H](C)C(=O)N[C@@H]([C@@H](C)O)C(=O)N1)[C@@H](C)O)C(=O)N1CCC[C@H]1C(=O)N[C@@H](CO)C(=O)N[C@@H](CO)C(=O)N[C@H](C(=O)N[C@@H](CC(N)=O)C(=O)N[C@H](C(=O)NCC(=O)N1CCC[C@H]1C(=O)N[C@@H](CC(N)=O)C(=O)N[C@H](C(=O)N[C@@H](Cc1ccc(O)cc1)C(N)=O)[C@@H](C)O)C(C)C)[C@@H](C)O [Example 102] ({C20 diacid-γGlu}-GRCNTATCATQRLAHFLRHSSPNFGAIPSSTNVGPNTY-NH2; disulfide 3-8 (inferred)) | 2.9 | 2.9 | 2.9 | 2.9 | 36.2 | 36.2 | 36.2 | 36.2 | 36.2 | 36.2 | 36.2 | 0.674 | 97.7 | 97.7 | 97.7 | 65.9
CC[C@H](C)[C@H](NC(=O)[C@H](C)NC(=O)CNC(=O)[C@H](Cc1ccccc1)NC(=O)[C@H](CC(N)=O)NC(=O)[C@@H]1CCCN1C(=O)[C@H](CO)NC(=O)[C@H](CO)NC(=O)[C@H](Cc1c[nH]cn1)NC(=O)[C@H](CCCNC(=N)N)NC(=O)[C@H](CC(C)C)NC(=O)[C@H](Cc1ccccc1)NC(=O)[C@H](CCC(=O)O)NC(=O)[C@H](C)NC(=O)[C@H](CC(C)C)NC(=O)[C@H](CCCNC(=N)N)NC(=O)[C@H](CCC(N)=O)NC(=O)[C@@H](NC(=O)[C@H](C)NC(=O)[C@@H]1CSSC[C@H](NC(=O)[C@@H](N)CCCCNC(=O)CC[C@H](NC(=O)CC[C@H](NC(=O)CCCCCCCCCCCCCCCCCCC(=O)O)C(=O)O)C(=O)O)C(=O)N[C@@H](CC(N)=O)C(=O)N[C@@H]([C@@H](C)O)C(=O)N[C@@H](C)C(=O)N[C@@H]([C@@H](C)O)C(=O)N1)[C@@H](C)O)C(=O)N1CCC[C@H]1C(=O)N[C@@H](CO)C(=O)N[C@@H](CO)C(=O)N[C@H](C(=O)N[C@@H](CC(N)=O)C(=O)N[C@H](C(=O)NCC(=O)N[C@@H](Cc1c[nH]cn1)C(=O)N[C@@H](CCC(=O)O)C(=O)N[C@H](C(=O)N[C@@H](Cc1ccc(O)cc1)C(N)=O)[C@@H](C)O)C(C)C)[C@@H](C)O [Example 104] (H-K([γGlu-γGlu-C20 diacid])CNTATCATQRLAEFLRHSSPNFGAIPSSTNVGHETY-NH2; disulfide 2-7; N-terminus assumed) |  | 15.8 | 15.8 | 15.8 | 29.1 | 29.1 | 29.1 | 29.1 | 29.1 | 29.1 | 29.1 | 3.14 | 158.8 | 158.8 | 158.8 | 498
CC[C@H](C)[C@H](NC(=O)[C@H](C)NC(=O)CNC(=O)[C@H](Cc1ccccc1)NC(=O)[C@H](CC(N)=O)NC(=O)[C@@H]1CCCN1C(=O)[C@H](CO)NC(=O)[C@H](CO)NC(=O)[C@H](Cc1c[nH]cn1)NC(=O)[C@H](CCCNC(=N)N)NC(=O)[C@H](CC(C)C)NC(=O)[C@H](Cc1ccccc1)NC(=O)[C@H](CC(N)=O)NC(=O)[C@H](C)NC(=O)[C@H](CC(C)C)NC(=O)[C@H](CCCNC(=N)N)NC(=O)[C@H](CCC(N)=O)NC(=O)[C@@H](NC(=O)[C@H](C)NC(=O)[C@@H]1CSSC[C@H](NC(=O)[C@@H](N)CCCCNC(=O)CC[C@H](NC(=O)CCCCCCCCCCCCCCC(=O)O)C(=O)O)C(=O)N[C@@H](CC(N)=O)C(=O)N[C@@H]([C@@H](C)O)C(=O)N[C@@H](C)C(=O)N[C@@H]([C@@H](C)O)C(=O)N1)[C@@H](C)O)C(=O)N1CCC[C@H]1C(=O)N[C@@H](CO)C(=O)N[C@@H](CO)C(=O)N[C@H](C(=O)N[C@@H](CC(N)=O)C(=O)N[C@H](C(=O)NCC(=O)N[C@@H](Cc1c[nH]cn1)C(=O)N[C@@H](CC(N)=O)C(=O)N[C@H](C(=O)N[C@@H](Cc1ccc(O)cc1)C(N)=O)[C@@H](C)O)C(C)C)[C@@H](C)O [Example 111] |  | 65.1 | 65.1 | 65.1 | 18.5 | 18.5 | 18.5 | 18.5 | 18.5 | 18.5 | 18.5 | 1.24 | 326.8 | 326.8 | 326.8 | 404
